Test results: patent publication US12668584B2, “Heterocyclic compounds as kinase inhibitors for therapeutic uses” (National Health Research Institutes, priority 2019, dated 2026)

Key:
CSF1R = CSF1R (Homo sapiens, UniProt P07333); test: HotSpot kinase profiling, CSF1R; type: biochemical; details: HotSpot assay, 10 μM ATP
Procedure: (§1) A study was conducted to determine kinase selectivity of compounds 27 and 67. More specifically, each compound was tested for inhibitory activity of CSF1R kinase, as compared to that of seven other kinases, i.e., Aurora A, Aurora B, tyrosine-protein kinase Kit (c-Kit), fms-like tyrosine kinase 3 (FLT3), platelet-derived growth factor receptor (PDGFR) A, PDGFR B, and discoidin domain receptor tyrosine kinase 1 (DDR1).
(§2) In vitro profiling of the kinase panel was performed at Reaction Biology Corporation (www.reactionbiology.com, Malvern, PA) using the “HotSpot” assay platform. Briefly, specific kinase/substrate pairs along with required cofactors were prepared in a reaction buffer containing 20 mM Hepes pH 7.5, 10 mM MgCl2, 1 mM EGTA, 0.02% Brij35, 0.02 mg/ml BSA, 0.1 mM NA3VO4, 2 mM DTT, and 1% DMSO. Compound 27 or 67 was added. 20 minutes later, a mixture of ATP (Sigma, St. Louis MO) and ^33P ATP (Perkin Elmer, Waltham MA) was added to the resulting reaction solution to give a final concentration of 10 μM. The reaction was carried out at room temperature for 120 min., followed by spotting the reaction solution onto P81 ion exchange filter paper (Whatman Inc., Piscataway, NJ). Unbound phosphate was removed by extensive washing filters in 0.75% phosphoric acid. […] Selectivity, expressed as an IC50 ratio, was determined by dividing the IC50 value of a kinase, e.g., Aurora A, by that of CSF1R.

M-NFS-60 cells = test: MTS cell viability assay, M-NFS-60; type: cell-based; details: 72 h, read-out: Cellular Proliferation Assay M-NFS-60 (nM) GI50
Procedure, shortened: (§3)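 Cells seeded 16 h beforehand (10000 M-NFS-60 or 8000 BaF3-CSF1R-1600 per well), then exposed 72 h to test compounds in RPMI1640 with 10% FBS at 37 °C. Viability read by MTS absorbance at 490 nm; GI50 is the concentration giving 50% viability reduction versus DMSO vehicle.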

Aurora B = Aurora B (Homo sapiens, UniProt Q96GD4); test: HotSpot kinase profiling, Aurora B; type: biochemical; details: HotSpot assay, 10 μM ATP; IC50 of kinase divided by that of CSF1R
Aurora B, sequence (Q96GD4 whole entry): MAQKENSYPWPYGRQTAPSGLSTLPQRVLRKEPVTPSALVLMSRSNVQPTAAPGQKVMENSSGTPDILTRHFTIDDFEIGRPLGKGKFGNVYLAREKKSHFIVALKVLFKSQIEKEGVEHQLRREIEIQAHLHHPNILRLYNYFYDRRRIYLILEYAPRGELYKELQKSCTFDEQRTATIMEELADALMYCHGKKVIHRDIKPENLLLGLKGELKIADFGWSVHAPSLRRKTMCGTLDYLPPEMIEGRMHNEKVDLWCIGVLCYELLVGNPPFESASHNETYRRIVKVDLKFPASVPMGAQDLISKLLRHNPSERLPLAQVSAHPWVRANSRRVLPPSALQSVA
Procedure: In vitro profiling of the kinase panel was performed at Reaction Biology Corporation (www.reactionbiology.com, Malvern, PA) using the “HotSpot” assay platform. Briefly, specific kinase/substrate pairs along with required cofactors were prepared in a reaction buffer containing 20 mM Hepes pH 7.5, 10 mM MgCl2, 1 mM EGTA, 0.02% Brij35, 0.02 mg/ml BSA, 0.1 mM NA3VO4, 2 mM DTT, and 1% DMSO. […] 20 minutes later, a mixture of ATP (Sigma, St. Louis MO) and ^33P ATP (Perkin Elmer, Waltham MA) was added to the resulting reaction solution to give a final concentration of 10 μM. The reaction was carried out at room temperature for 120 min., followed by spotting the reaction solution onto P81 ion exchange filter paper (Whatman Inc., Piscataway, NJ). Unbound phosphate was removed by extensive washing filters in 0.75% phosphoric acid. […] Selectivity, expressed as an IC50 ratio, was determined by dividing the IC50 value of a kinase, e.g., Aurora A, by that of CSF1R.

PDGFR B = PDGFR B (Homo sapiens, UniProt P09619); test: HotSpot kinase profiling, PDGFR B; type: biochemical; details: HotSpot assay, 10 μM ATP; IC50 of kinase divided by that of CSF1R
PDGFR B, sequence (P09619 33-1106): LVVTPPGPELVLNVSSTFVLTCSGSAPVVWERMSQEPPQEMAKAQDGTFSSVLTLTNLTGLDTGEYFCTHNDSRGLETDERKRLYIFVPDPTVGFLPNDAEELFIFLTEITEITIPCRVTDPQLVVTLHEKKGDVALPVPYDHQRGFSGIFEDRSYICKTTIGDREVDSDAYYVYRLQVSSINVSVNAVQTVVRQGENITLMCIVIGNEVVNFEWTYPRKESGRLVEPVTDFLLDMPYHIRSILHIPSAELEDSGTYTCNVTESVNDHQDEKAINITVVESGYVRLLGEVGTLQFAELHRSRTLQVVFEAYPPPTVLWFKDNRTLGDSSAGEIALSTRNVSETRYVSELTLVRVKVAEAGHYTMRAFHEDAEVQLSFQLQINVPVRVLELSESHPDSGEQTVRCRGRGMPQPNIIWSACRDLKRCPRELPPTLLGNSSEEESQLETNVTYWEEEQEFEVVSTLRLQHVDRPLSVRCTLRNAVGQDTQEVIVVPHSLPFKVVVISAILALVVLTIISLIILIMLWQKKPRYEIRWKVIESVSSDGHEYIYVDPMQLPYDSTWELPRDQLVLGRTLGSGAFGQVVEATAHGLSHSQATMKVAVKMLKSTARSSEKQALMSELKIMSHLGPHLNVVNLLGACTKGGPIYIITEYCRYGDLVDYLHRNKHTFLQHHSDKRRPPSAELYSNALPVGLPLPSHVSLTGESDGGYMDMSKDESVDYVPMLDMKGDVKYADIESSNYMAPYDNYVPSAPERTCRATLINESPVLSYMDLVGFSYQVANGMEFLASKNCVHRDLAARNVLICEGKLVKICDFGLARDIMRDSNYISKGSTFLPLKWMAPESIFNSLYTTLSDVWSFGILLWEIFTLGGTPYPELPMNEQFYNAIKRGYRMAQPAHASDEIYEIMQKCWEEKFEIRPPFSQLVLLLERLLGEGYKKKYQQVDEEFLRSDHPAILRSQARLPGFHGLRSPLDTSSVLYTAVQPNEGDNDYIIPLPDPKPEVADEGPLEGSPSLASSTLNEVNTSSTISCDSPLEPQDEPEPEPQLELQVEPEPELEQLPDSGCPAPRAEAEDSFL
Procedure: as §1, §2

[1] = target: discoidin domain receptor tyrosine kinase 1 (DDR1) (Homo sapiens, UniProt Q08345); test: HotSpot kinase profiling, DDR1; type: biochemical; details: HotSpot assay, 10 μM ATP; IC50 of kinase divided by that of CSF1R
discoidin domain receptor tyrosine kinase 1 (DDR1), sequence (Q08345 19-913): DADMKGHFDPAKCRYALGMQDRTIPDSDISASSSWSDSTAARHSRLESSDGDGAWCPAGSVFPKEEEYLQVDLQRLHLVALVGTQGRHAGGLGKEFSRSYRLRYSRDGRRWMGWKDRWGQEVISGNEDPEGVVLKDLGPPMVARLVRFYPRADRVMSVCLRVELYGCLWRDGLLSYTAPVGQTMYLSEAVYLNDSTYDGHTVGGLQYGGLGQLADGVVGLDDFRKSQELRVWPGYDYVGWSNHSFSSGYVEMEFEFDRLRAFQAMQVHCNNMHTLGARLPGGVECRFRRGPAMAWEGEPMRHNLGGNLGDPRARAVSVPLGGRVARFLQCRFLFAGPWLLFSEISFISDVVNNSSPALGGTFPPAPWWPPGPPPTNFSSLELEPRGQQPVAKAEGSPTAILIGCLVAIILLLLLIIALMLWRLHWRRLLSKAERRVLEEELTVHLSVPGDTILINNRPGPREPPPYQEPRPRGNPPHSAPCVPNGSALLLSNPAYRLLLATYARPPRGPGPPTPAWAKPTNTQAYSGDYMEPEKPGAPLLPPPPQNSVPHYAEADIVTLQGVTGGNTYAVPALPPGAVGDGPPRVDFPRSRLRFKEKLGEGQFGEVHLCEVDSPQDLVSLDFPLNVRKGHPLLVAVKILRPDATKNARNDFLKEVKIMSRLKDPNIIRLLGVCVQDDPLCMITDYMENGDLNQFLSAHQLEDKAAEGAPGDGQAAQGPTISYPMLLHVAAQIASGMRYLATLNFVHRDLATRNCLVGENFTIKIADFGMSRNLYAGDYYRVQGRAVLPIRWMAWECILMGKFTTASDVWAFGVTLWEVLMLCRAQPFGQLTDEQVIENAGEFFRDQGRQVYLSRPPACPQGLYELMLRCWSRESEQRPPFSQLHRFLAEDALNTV
Procedure: as §1, §2

[2] = test system: BaF3-CSF1R-1600 cells (express ETV6-CSF1R fusion protein); test: MTS cell viability assay, BaF3-CSF1R-1600; type: cell-based; details: 72 h, read-out: Cellular Proliferation Assay BaF3-CSF1R GI50
Procedure, shortened: as §3

[3] = target: platelet-derived growth factor receptor (PDGFR) A (Homo sapiens, UniProt P16234); test: HotSpot kinase profiling, PDGFR A; type: biochemical; details: HotSpot assay, 10 μM ATP; IC50 of kinase divided by that of CSF1R
platelet-derived growth factor receptor (PDGFR) A, sequence (P16234 24-1089): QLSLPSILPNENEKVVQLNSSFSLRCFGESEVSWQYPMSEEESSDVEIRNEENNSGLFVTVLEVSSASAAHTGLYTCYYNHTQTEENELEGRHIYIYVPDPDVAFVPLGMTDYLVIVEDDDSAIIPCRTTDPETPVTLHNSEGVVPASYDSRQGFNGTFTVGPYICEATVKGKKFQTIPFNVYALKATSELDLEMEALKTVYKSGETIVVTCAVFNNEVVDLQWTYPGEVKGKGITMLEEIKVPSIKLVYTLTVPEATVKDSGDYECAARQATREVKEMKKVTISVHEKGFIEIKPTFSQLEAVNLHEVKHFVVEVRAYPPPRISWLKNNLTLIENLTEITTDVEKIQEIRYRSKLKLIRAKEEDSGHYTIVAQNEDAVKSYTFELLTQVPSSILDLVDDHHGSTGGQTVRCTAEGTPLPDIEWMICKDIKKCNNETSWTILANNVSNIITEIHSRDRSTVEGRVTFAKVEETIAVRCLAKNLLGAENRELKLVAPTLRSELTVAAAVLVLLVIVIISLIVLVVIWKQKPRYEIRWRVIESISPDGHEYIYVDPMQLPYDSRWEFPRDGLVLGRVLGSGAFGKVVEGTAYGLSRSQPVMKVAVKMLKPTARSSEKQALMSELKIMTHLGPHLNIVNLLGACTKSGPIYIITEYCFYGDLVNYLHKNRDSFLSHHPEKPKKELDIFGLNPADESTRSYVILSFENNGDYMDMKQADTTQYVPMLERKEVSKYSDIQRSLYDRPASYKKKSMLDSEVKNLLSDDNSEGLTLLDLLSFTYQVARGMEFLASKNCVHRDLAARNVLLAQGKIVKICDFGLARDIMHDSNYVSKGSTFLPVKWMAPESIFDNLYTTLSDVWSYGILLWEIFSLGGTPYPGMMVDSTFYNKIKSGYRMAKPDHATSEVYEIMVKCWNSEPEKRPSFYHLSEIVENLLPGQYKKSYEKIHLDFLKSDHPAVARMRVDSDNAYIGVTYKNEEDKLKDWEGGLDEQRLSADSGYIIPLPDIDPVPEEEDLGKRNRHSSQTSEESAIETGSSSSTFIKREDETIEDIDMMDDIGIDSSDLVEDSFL
Procedure: as §1, §2

Aurora A = target: T1, Aurora A (Homo sapiens, UniProt O14965); test: HotSpot kinase profiling, Aurora A; type: biochemical; details: HotSpot assay, 10 μM ATP; IC50 of kinase divided by that of CSF1R
T1 sequence (O14965 1-403): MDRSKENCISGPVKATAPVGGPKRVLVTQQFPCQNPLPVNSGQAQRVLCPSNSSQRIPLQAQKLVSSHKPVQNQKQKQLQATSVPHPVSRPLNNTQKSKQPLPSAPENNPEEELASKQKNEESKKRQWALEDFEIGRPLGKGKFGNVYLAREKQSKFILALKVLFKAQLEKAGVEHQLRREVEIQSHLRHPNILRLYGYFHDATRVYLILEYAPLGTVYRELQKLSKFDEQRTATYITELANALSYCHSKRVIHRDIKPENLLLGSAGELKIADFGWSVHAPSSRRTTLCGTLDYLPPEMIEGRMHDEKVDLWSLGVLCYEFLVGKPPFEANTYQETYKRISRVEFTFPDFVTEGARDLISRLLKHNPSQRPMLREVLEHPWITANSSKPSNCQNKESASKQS
Procedure: as §1, §2

[4] = target: tyrosine-protein kinase Kit (c-Kit) (Homo sapiens, UniProt P10721); test: HotSpot kinase profiling, c-Kit; type: biochemical; details: HotSpot assay, 10 μM ATP; IC50 of kinase divided by that of CSF1R
Procedure: as §1, §2

CSF1R, sequence (P07333 20-972): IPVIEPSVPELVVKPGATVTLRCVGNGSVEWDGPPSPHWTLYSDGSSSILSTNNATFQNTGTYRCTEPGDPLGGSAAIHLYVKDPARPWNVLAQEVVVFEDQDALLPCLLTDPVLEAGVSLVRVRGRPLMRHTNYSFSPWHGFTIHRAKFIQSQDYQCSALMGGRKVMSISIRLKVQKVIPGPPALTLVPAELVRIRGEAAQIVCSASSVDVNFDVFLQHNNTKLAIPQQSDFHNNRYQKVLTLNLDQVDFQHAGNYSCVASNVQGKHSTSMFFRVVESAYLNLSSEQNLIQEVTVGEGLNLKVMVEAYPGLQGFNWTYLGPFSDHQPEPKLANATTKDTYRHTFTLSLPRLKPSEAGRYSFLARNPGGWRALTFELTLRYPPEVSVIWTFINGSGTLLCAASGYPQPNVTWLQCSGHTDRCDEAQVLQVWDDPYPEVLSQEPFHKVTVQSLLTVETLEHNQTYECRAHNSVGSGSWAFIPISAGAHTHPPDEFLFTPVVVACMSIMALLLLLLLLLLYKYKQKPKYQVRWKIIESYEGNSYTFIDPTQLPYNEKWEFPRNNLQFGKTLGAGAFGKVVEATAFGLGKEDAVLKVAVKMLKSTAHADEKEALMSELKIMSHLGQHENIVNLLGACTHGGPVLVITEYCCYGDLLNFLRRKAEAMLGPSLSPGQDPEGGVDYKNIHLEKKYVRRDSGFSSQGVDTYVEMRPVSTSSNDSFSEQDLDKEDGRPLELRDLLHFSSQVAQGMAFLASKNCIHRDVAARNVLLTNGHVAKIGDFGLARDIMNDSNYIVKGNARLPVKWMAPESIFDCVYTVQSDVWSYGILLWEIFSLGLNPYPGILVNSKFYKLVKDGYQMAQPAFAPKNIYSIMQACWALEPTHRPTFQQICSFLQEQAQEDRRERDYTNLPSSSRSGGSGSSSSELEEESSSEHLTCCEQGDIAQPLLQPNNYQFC

Structure (SMILES) | IC50 (CSF1R) | GI50 (M-NFS-60 cells) | IC50 ratio Aurora B / CSF1R (Aurora B) | IC50 ratio PDGFR B / CSF1R (PDGFR B) | IC50 ratio DDR1 / CSF1R [1] | GI50 [2] | IC50 ratio PDGFR A / CSF1R [3] | IC50 ratio Aurora A / CSF1R (Aurora A) | IC50 ratio c-Kit / CSF1R [4]
CN(C)c1ccc2c(Oc3ccc(NC(=O)NCc4ccc(C(F)(F)F)nc4)cc3)ncnc2c1 [Compound 27, 1-(4-((7-(dimethylamino)quinazolin-4-yl)oxy)phenyl)-3-((6-(trifluoromethyl)pyridin-3-yl)methyl)urea] | 0.534 nM | 20 to 100 nM | +++ (+++: 1000 > IC50 ratio > 100) | ++ (++: 100 > IC50 ratio > 10) | +++ (+++: 1000 > IC50 ratio > 100) | 20 to 100 nM | ++ (++: 100 > IC50 ratio > 10) | ++++ (++++: IC50 ratio > 1000) | ++ (++: 100 > IC50 ratio > 10)
CN(C)c1ccc2c(Oc3ccc4c(ccn4C(=O)NCc4ccc(C(F)(F)F)nc4)c3)ncnc2c1 [Compound 67, 5-((7-(dimethylamino)quinazolin-4-yl)oxy)-N-((6-(trifluoromethyl)pyridin-3-yl)methyl)-1H-indole-1-carboxamide] | 5.69 nM | 100 to 1000 nM | +++ (+++: 1000 > IC50 ratio > 100) | +++ (+++: 1000 > IC50 ratio > 100) | + (+: 10 > IC50 ratio > 1) | 20 to 100 nM | ++ (++: 100 > IC50 ratio > 10) | +++ (+++: 1000 > IC50 ratio > 100) | +++ (+++: 1000 > IC50 ratio > 100)
